Results taken from US6933315B2, “Derivatives of isoindigo, indigo and indirubin and methods of treating cancer” (priority 2001, dated 2005).
Like-named read-outs stand apart in the source and are kept apart here.

Experiments:
Lewis Lung Cancer = experiment: Anticancer activity in Lewis lung carcinoma animal model; type: in vivo, C57 mice; conditions: mice, oral, Indirubin 100 × 9, Meisoindigo 106 × 9 mg/kgxd
Protocol: Briefly, C57 mice, body weight between 18 to 22 grams, and rat, body weight between 50 to 55 grams, were randomly divided into several groups, ten of each, respectively. Approximately 2×10^6 of Lewis cancer cells or Walker sarcoma cells were transplanted into mice or rat. […] The animals in the control group were given 0.1 ml saline (drug vehicle, negative control) for the same periods of time as treated group. The animals at end of the treatment were sacrificed and tumors were removed and weighed.

[1] = system: TA97, TA98, TA100 and TA102; experiment: Reverse mutation, Ames test; type: cell-based, salmonella typhimurium; conditions: +S9 and −S9, Meisoindigo 2, 20, 50, 100 and 200 μg/dish
Protocol: Meisoindigo at concentrations of 2, 20, 50, 100 and 200 μg/dish (10 cm), metabolically activated (+S9) and inactivated (−S9), were tested in strains of TA97, TA98, TA100 and TA102 (amino acid deficit salmonella typhimurium) respectively. Daunomycin, 2-aminofluorene (2AF), methylmethanesulfonate (MMS), 2,7-2AF, and 2-hydroxy-anthraquinone were used as positive controls.

Chronic toxicity in dogs = type: in vivo
Protocol: On the basis of above initial tests, the sub-acute toxicities of Meisoindigo were further examined in dogs. Twelve dogs were randomly divided into 3 groups each having equal numbers of males and females, and orally given Meisoindigo at doses of 0, 5, and 10 mg/kg daily, respectively, for 6 months. […] All parameters tested, in all animals, including controls fluctuated within normal ranges.
Twenty-four hours after the termination of Meisoindigo, half of the animal of each group were sacrificed, and dissected for pathological examination.

[2] = set-up: species or system dogs; conditions: dog, in vivo
Protocol: Two dogs were initially tested for sub-acute toxicity of Meisoindigo. They were orally given 10 mg/kg daily for 3 months.
Since no major toxicities were found during the initial study, an additional 3 dogs were tested by orally giving them a higher dose (20 mg/kg). Among them, one dog was given 20 mg/kg for 46 days, and another 2 dogs given for 2 months. […] However, all of those symptoms disappeared after the termination of the treatment of Meisoindigo.

protein kinase C (PKC) = experiment: PKC activity from treated LNCaP cells; type: cell-based, Human; conditions: as high as 15 μM, 24 hrs
Protocol: (§1) Assay for cyclin dependent kinase activity: HUVEC and LNCaP cells were cultured in EMB (endothelial cell basal medium) and RPMI 1640 containing 10% FBS, respectively. The cells grown exponentially were exposed to indicated concentrations of meisoindigo or NATURA for 24 hr. The cells were harvested, washed, and total proteins extracted as described previously. One hundred μg of the proteins were immuno-precipitated using antibodies against cdk2, cdk4/6, PKC, ERK2 or cyclin D1 overnight at 4° C. in the presence of a cocktail of protease inhibitors. […] The phosphorylated histone H1 (represent cdk activity) was measured by scintillation counting or by SDS-polyacrylaimde gel electrophoresis. The direct inhibitory effects of Meisoindigo and NATURA were also measured by reaction of immuno-purified specific enzyme from untreated cells directly with the Meisoindigo or NATURA. […]
(§2) LNCaP cells at exponential growth phase were exposed to different concentrations of NATURA (panel A & B) for 24 hrs, or to PD98059 (panel C) for 15 min. […] Upper panels are the imagines of x-ray films from SDS-PAGE, and lower panels represent the densities of each band from the films determined by an Imagine Densitometer from the same films (expressed as the percent of control).

[3] = molecular target: T1, immuno-purified cdk2 from LNCaP cells (Homo sapiens, UniProt P24941); experiment: Direct inhibition of immuno-purified cdk2 activity in vitro; type: biochemical
T1 construct: Two hundred mg of total protein extracts were immuno-precipitated with cdk2 antibody overnight at 4° C
Protocol: (§3) Assay for cyclin dependent kinase activity: HUVEC and LNCaP cells were cultured in EMB (endothelial cell basal medium) and RPMI 1640 containing 10% FBS, respectively. The cells grown exponentially were exposed to indicated concentrations of meisoindigo or NATURA for 24 hr. The cells were harvested, washed, and total proteins extracted as described previously. One hundred μg of the proteins were immuno-precipitated using antibodies against cdk2, cdk4/6, PKC, ERK2 or cyclin D1 overnight at 4° C. in the presence of a cocktail of protease inhibitors. The immuno-precipitates were washed 4 times with protein extraction buffer and once with kinase assay buffer, and reacted with 75 μg/ml histone H1 in the presence of [γ-^32P]-ATP (2.5 μCi/10 μM). The phosphorylated histone H1 (represent cdk activity) was measured by scintillation counting or by SDS-polyacrylaimde gel electrophoresis. The direct inhibitory effects of Meisoindigo and NATURA were also measured by reaction of immuno-purified specific enzyme from untreated cells directly with the Meisoindigo or NATURA.
When immuno-purified cdk2 from LNCaP cells was reacted with histone H1 in the presence of different concentrations of NATURA-β and γ-[^32P]-ATP (2.5 μCi/[…]), the enzyme activity was decreased in a concentration-dependent manner.
Two hundred mg of total protein extracts were immuno-precipitated with cdk2 antibody overnight at 4° C. After 4 washes with PBSTDS, and once with kinase assay buffer, the immuno-purified enzyme was then reacted for 10 min with 10 mg of histone H1 in the presence of different concentrations of NATURA or 50 mM of genistein (as a positive control) and γ-[^32P]-ATP (2.5 mCi/10 mM). The phosphorylated histone H1 (reflecting cdk2 activity) was detected either by SDS-PAGE (upper panel), or radioactive scintillation counting (lower panel, after eliminating free γ-[^32P]-ATP).

Solubility description = type: physicochemical
[4] = system: extracellular signal-regulated protein kinase 2 (ERK2); experiment: ERK2 activity from treated LNCaP cells; type: cell-based, Human; conditions: as high as 15 μM, 24 hrs
Protocol: as §1, §2

cdk2 = cdk2 activity immuno-precipitated from treated LNCaP cells; type: cell-based, Human; conditions: 24 hours incubation with LNCaP cells
Protocol: as §3
LNCaP cells grown exponentially were exposed to different concentrations of NATURA for 24 hrs. […] The upper panels (A & B) are imagines of the films from SDS-PAGE, and lower panels represent the density measured by an Imagine Densitometer from the same films (expressed as percent of control).

[5] = oral, 5 and 10 mg/kg daily for 6 months

## CN1C(=O)/C(=C2/C(=O)Nc3ccccc32)c2ccccc21 [Meisoindigo]
Lewis Lung Cancer
  Inhibition (%): 48.6 ± 4.1%
  Tumor Size X ± SD: 1.80 ± 0.15
[1]
  reverse mutations (Ames test): No induction of reverse mutations
Chronic toxicity in dogs; 24 hours after termination of 6 months dosing
  pathological examination of heart, liver, lung, kidney, stomach, gastro intestine, testis, ovary, lymph node: No abnormalities
Chronic toxicity in dogs; [5]
  clinical observations: minor gastro-intestinal irritations
  hemogram, functions of liver (SGPT), kidney (BUN) and heart (ECG) vs control: No significant differences
[2]
  histochemical examinations: cellular edema, fatty degeneration, and scatter hyperplasia inflammation in liver tissues
[2]; po, 10 mg/kg
  biochemical changes of blood, liver, and kidney: No biochemical changes
  clinical observations: Minor gastro intestinal irritations were observed occasionally
[2]; po, 20 mg/kg
  clinical observations: intestinal irritations at various degrees
  tested parameters: No abnormalities

## CC(=O)OC1COC(N2C(=O)/C(=C3/C(=O)Nc4ccccc43)c3ccccc32)C(OC(C)=O)C1OC(C)=O [NATURA, 1-(β-D-O-Triacetyl-xylopyranosyl)-isoindigo]
Protein kinase C (PKC)
  effect on PKC activity: No inhibitory effect
[3]; 10 μM compound, ATP concentration as high as 100 μM, read-out: inhibitory effect on immuno-purified cdk2, ATP competing assay
  inhibition at 10 µM: > 50%
[3]; immuno-purified cdk2, histone H1, γ-[32P]-ATP 2.5 μCi/20 μM
  IC50: 1600 ± 200 nM
Solubility description
  solubility in dimethyl sulfoxide (DMSO): soluble
  solubility in ethanol, acetone, chloroform: slightly dissolves
  solubility in water: rarely dissolves
[4]
  effect on ERK2 activity: No inhibitory effect
cdk2; 5.0 μM
  inhibition of cdk2 enzyme activity: approximately 46%
cdk2; 15 μM
  inhibition of cdk2 enzyme activity: ~92%
